Results as given in PMC12733967, “Pleiotropic Function of Antenna-Specific Odorant-Binding Protein Links Xenobiotic Adaptation and Olfaction in Leptinotarsa decemlineata” (Insects, 2025).

Key:
LdecOBP33 [1] = assay: Competitive fluorescence displacement binding assay (1-NPN reporter); set-up: species or system Leptinotarsa decemlineata; settings: for IC50 / displacement of the 1-NPN probe: 2 µM LdecOBP33, 2 µM 1-NPN; for IC50: competitor 0-450 µM, 20 mM Tris pH 7.4, 25 °C, mean ± SE (n = 3); for displacement of the 1-NPN probe: competitor up to 450 µM; for Ki: calculated from IC50 with Cheng and Prusoff equation, Ki=IC50/(1+NPN/KdNPN)
Procedure: (§1) N-phenyl-1-naphthylamine (1-NPN) was used as a fluorescent reporter to assess the ligand-binding affinity of LdecOBP33 toward various plant volatiles and pesticides; this was chosen due to its reported success in prior studies. […] Each assay was performed at 25 ± 1 °C in a 96-well flat-bottom black plate with a final volume of 200 µL and 3 replicates. The relative fluorescence intensity was measured with a 337 nm/10 nm excitation filter and a 413 nm/10 nm emission filter, using a multi-mode Tecan Spark® plate reader. […] The equation Ki=IC50/(1+NPN/KdNPN) was used to calculate the Ki values of the competitor ligands.

[2] = ref PubChem database (accessed on 31 October 2025); cited from earlier work
CPB [3] = assay: Baseline mortality exposure to imidacloprid in adults, resistant vs susceptible strains; format: in vivo, Leptinotarsa decemlineata
Text: Two different populations of CPBs were used for this study. The susceptible CPB population was purchased from French Agricultural Research (Lamberton, MN, USA). This population was initially collected in 2003 from Long Island, NY; following this, it was reared in laboratory conditions with no pesticide exposure. Neonicotinoid-resistant CPBs were collected from the University of Maine Aroostook Research Farm (Presque Isle, ME, USA). Baseline mortality exposure to imidacloprid in adults indicated a ~30-fold resistance ratio between the resistant and susceptible strains. Both CPB populations were reared in a Penn State facility greenhouse at 25 ± 1 °C under a 16:8 L/D photoperiod. Beetles were fed a constant supply of Red Norland potato plants and housed in insect and butterfly habitat cages (Restcloud, Guangzhou, China). Eggs were collected from plants and stored in Petri dishes maintained at 25 ± 1 °C and 60 ± 5% humidity under a 16:8 L/D photoperiod, located within a rearing room. Newly emerged first-instar larvae fed upon fresh potato plant leaflets up to the third instar and were then transferred back to the greenhouse.

CPB [4] = assay: Whole-antenna contact bioassay with imidacloprid; format: in vivo, Leptinotarsa decemlineata; settings: for mortality: after 36 h; for mortality / average mortality: 0.5 µL of 0.45 µg/µL per antenna
Procedure: After feeding with RNAi, the control or LdecOBP33 knockdown male CPBs were placed individually into fresh Petri dishes and anesthetized on ice for 10 min. Afterwards, 0.5 µL of an imidacloprid solution (Sigma Aldrich, St. Louis, MO, USA)—at various concentrations—in acetone was topically applied to each antenna of each CPB using a Hamilton 25 µL model #702 syringe (Hamilton, Reno, NV, USA). Care was taken to ensure that the pesticide solution was applied exclusively to the antennae. […] After treatment, all CPBs were placed in a fresh Petri dish with fresh potato leaves; the dish was kept in a rearing room maintained at 25 ± 1 °C, 60 ± 5% humidity, and a 16:8 L/D photoperiod. CPB mortality was assessed at 0, 3, 6, and 12 h, and every 12 h thereafter, for a total of five days post-treatment. The determination of recovery for individual CPBs after pesticide treatment was adapted from prior studies using three criteria. […] Second, beetles were placed prone and given two minutes to flip upright; those unable to do so were classified as dead. Finally, beetles were placed upside down on the handle of a paintbrush to assess their mobility; individuals that could not walk their full body length or fell off were considered dead. Six biological replicates were conducted, each consisting of 8–10 beetles.

LdecOBP33 [5] = assay: Saturation fluorescence binding assay of 1-NPN with recombinant LdecOBP33; set-up: species or system Leptinotarsa decemlineata; settings: 2 µM LdecOBP33, 1-NPN 0-25 µM, 20 mM Tris pH 7.4, 25 °C; one-site saturation binding accounting for ligand depletion; read-out: dissociation constant (Kd)
Procedure: as §1

CN/C(=N\[N+](=O)[O-])NCc1cnc(Cl)s1 [Clothianidin]
IC50 (LdecOBP33 [1]): 94.5 ± 4.24 µM
displacement of the 1-NPN probe (LdecOBP33 [1]): over 50%
Ki (LdecOBP33 [1]): 71 µM
LogP [2]: 0.70

C=C[C@](C)(O)CCC=C(C)C [L-Linalool]
IC50 (LdecOBP33 [1]): 48.3 ± 1.77 µM
displacement of the 1-NPN probe (LdecOBP33 [1]): over 50%
Ki (LdecOBP33 [1]): 36.2 µM

OC[C@H]1OC(O)[C@H](O)[C@@H](O)[C@@H]1O (stereo partly drawn) [D-Glucose]
IC50 (LdecOBP33 [1]): > 450 µM
displacement of the 1-NPN probe (LdecOBP33 [1]): No noticeable displacement
Ki (LdecOBP33 [1]): > 338 µM

CCC/C=C/C=O [(E)-2-Hexenal]
IC50 (LdecOBP33 [1]): 401 ± 16.3 µM
displacement of the 1-NPN probe (LdecOBP33 [1]): over 50%
Ki (LdecOBP33 [1]): 301 µM
LogP [2]: 1.50

CCOP(=S)(OCC)Oc1nc(Cl)c(Cl)cc1Cl [Chlorpyrifos]
IC50 (LdecOBP33 [1]): 45.8 ± 3.53 µM
displacement of the 1-NPN probe (LdecOBP33 [1]): over 50%
Ki (LdecOBP33 [1]): 34.4 µM
LogP [2]: 4.96

CC(C)=CC1C(C(=O)OCN2C(=O)C3=C(CCCC3)C2=O)C1(C)C (stereo not shown) [Tetramethrin]
IC50 (LdecOBP33 [1]): 29.1 ± 1.78 µM
displacement of the 1-NPN probe (LdecOBP33 [1]): over 50%
Ki (LdecOBP33 [1]): 21.8 µM
LogP [2]: 4.70

CCCCCCCCC=O [Nonanal]
IC50 (LdecOBP33 [1]): 7.29 ± 0.53 µM
displacement of the 1-NPN probe (LdecOBP33 [1]): over 50%
LogP [2]: 3.30

CC/C=C/CCO [(E)-3-Hexen-1-ol]
IC50 (LdecOBP33 [1]): > 450 µM
displacement of the 1-NPN probe (LdecOBP33 [1]): No noticeable displacement
Ki (LdecOBP33 [1]): > 338 µM
LogP [2]: 1.30

O=[N+]([O-])NC1=NCCN1Cc1ccc(Cl)nc1 [Imidacloprid]
resistance ratio between the resistant and susceptible strains (CPB [3]): ~ 30 fold
IC50 (LdecOBP33 [1]): 263 ± 15.2 µM
displacement of the 1-NPN probe (LdecOBP33 [1]): over 50%
Ki (LdecOBP33 [1]): 197 µM
LogP [2]: 0.57
increase of mortality, dsLdecOBP33-treated vs control (CPB [4]; by 120 h): 19%
mortality (CPB [4]; control (dsGFP) resistant males): 55%
average mortality (CPB [4]; control (dsGFP) resistant males, by 120 h): 12%
mortality (CPB [4]; dsLdecOBP33-KD resistant males): 81%
average mortality (CPB [4]; dsLdecOBP33-treated resistant males, by 120 h): 32%
LD50 (CPB [4]; preliminary tests, 0.5 µL application in acetone to each antenna): 0.45 µg/µL

CNC(=O)Oc1cccc2ccccc12 [Carbaryl]
IC50 (LdecOBP33 [1]): > 450 µM
displacement of the 1-NPN probe (LdecOBP33 [1]): No noticeable displacement
Ki (LdecOBP33 [1]): > 338 µM

COP(=S)(OC)Oc1nc(Cl)c(Cl)cc1Cl [Chlorpyrifos-methyl]
IC50 (LdecOBP33 [1]): 63.7 ± 3.32 µM
displacement of the 1-NPN probe (LdecOBP33 [1]): over 50%
Ki (LdecOBP33 [1]): 47.8 µM
LogP [2]: 4.30

c1ccc(Nc2cccc3ccccc23)cc1 [1-NPN, N-phenyl-1-naphthylamine]
Kd (LdecOBP33 [5]): 4.53 ± 0.31 µM

CC/C=C\CCOC(=O)CCC [(Z)-3-Hexenyl-butyrate]
IC50 (LdecOBP33 [1]): 24 ± 2.05 µM
displacement of the 1-NPN probe (LdecOBP33 [1]): over 50%
Ki (LdecOBP33 [1]): 18 µM

COC(=O)c1ccccc1O [Methyl salicylate]
IC50 (LdecOBP33 [1]): 396 ± 20 µM
displacement of the 1-NPN probe (LdecOBP33 [1]): over 50%
Ki (LdecOBP33 [1]): 298 µM
LogP [2]: 2.50
